Assay results as given in patent US11439642B2 (Adverio Pharma GmbH, priority 2010, dated 2022).

Test system: conscious spontaneously hypertensive rats (SHR Okamoto)
Assay: Radiotelemetric measurement of blood pressure on conscious spontaneously hypertensive rats
Assay type: in vivo, rat
Description: A commercially available telemetry system from DATA SCIENCES INTERNATIONAL DSI, USA, is employed for the blood pressure measurements on conscious rats described below.
The system consists of 3 main components: • implantable transmitters (Physiotel® telemetry transmitter) • receivers (Physiotel® receiver) which are linked via a multiplexer (DSI Data Exchange Matrix) to a • data acquisition computer.
The telemetry system makes it possible to continuously record blood pressure, heart rate and body motions of conscious animals in their usual habitat.
The investigations are carried out on adult female spontaneously hypertensive rats (SHR Okamoto) with a body weight of >200 g. SHR/NCrl from the Okamoto Kyoto School of Medicine, 1963 were a cross of male Wistar Kyoto rats with highly elevated blood pressure and female rats having a slightly elevated blood pressure and at F13 handed over to the U.S. National Institutes of Health.
After transmitter implantation, the experimental animals are housed singly in type 3 Makrolon cages. They have free access to standard feed and water.
The day/night rhythm in the experimental laboratory is changed by the room lighting at 6.00 am and at 7.00 pm.
The telemetry transmitters TA11 PA-C40 used are surgically implanted under aseptic conditions in the experimental animals at least 14 days before the first experimental use. The animals instrumented in this way can be employed repeatedly after the wound has healed and the implant has settled.
For the implantation, the fasted animals are anaesthetized with pentobarbital (Nembutal, Sanofi: 50 mg/kg i.p.) and shaved and disinfected over a large area of their abdomens. After the abdominal cavity has been opened along the linea alba, the liquid-filled measuring catheter of the system is inserted into the descending aorta in the cranial direction above the bifurcation and fixed with tissue glue (VetBonD™, 3M). The transmitter housing is fixed intraperitoneally to the abdominal wall muscle, and layered closure of the wound is performed.
An antibiotic (Tardomyocel COMP, Bayer, 1 ml/kg s.c.) is administered postoperatively for prophylaxis of infection.
Unless indicated otherwise, the substances to be investigated are administered orally by gavage in each case to a group of animals (n=6). The test substances are dissolved in suitable solvent mixtures, or suspended in 0.5% strength Tylose, appropriate for an administration volume of 5 ml/kg of body weight.
A solvent-treated group of animals is employed as control.
The telemetry measuring unit present is configured for 24 animals. Each experiment is recorded under an experiment number (Vyear month day).
Each of the instrumented rats living in the system is assigned a separate receiving antenna (1010 Receiver, DSI).
The implanted transmitters can be activated externally by means of an incorporated magnetic switch and are switched to transmission in the run-up to the experiment. The emitted signals can be detected online by a data acquisition system (Dataquest™ A.R.T. for Windows, DSI) and be appropriately processed. The data are stored in each case in a file created for this purpose and bearing the experiment number.
In the standard procedure, the following are measured for 10-second periods in each case: • systolic blood pressure (SBP) • diastolic blood pressure (DBP) • mean arterial pressure (MAP) • heart rate (HR) • activity (ACT).
The acquisition of measured values is repeated under computer control at 5-minute intervals. The source data obtained as absolute value are corrected in the diagram with the currently measured barometric pressure (Ambient Pressure Reference Monitor; APR-1) and stored as individual data. Further technical details are given in the extensive documentation from the manufacturing company (DSI).
Unless indicated otherwise, the test substances are administered at 9.00 am on the day of the experiment. Following the administration, the parameters described above are measured over 24 hours. […]

[1] = 0.3 mg/kg p.o., 0 hours after substance administration
[2] = 0.3 mg/kg p.o., 1 hours after substance administration
[3] = 0.3 mg/kg p.o., 2 hours after substance administration
[4] = 0.3 mg/kg p.o., 3 hours after substance administration
[5] = 0.3 mg/kg p.o., 4 hours after substance administration
[6] = 0.3 mg/kg p.o., 5 hours after substance administration
[7] = 0.3 mg/kg p.o., 6 hours after substance administration
[8] = 0.3 mg/kg p.o., 7 hours after substance administration
[9] = 0.3 mg/kg p.o., 8 hours after substance administration
[10] = 0.3 mg/kg p.o., 9 hours after substance administration
[11] = 0.3 mg/kg p.o., 10 hours after substance administration
[12] = 0.3 mg/kg p.o., 11 hours after substance administration
[13] = 0.3 mg/kg p.o., 12 hours after substance administration
[14] = 0.3 mg/kg p.o., 13 hours after substance administration
[15] = 0.3 mg/kg p.o., 14 hours after substance administration
[16] = 0.3 mg/kg p.o., 15 hours after substance administration
[17] = 0.3 mg/kg p.o., 16 hours after substance administration
[18] = 0.3 mg/kg p.o., 17 hours after substance administration
[19] = 0.3 mg/kg p.o., 18 hours after substance administration
[20] = 0.3 mg/kg p.o., 19 hours after substance administration
[21] = 0.3 mg/kg p.o., 20 hours after substance administration
[22] = 0.3 mg/kg p.o., 21 hours after substance administration
[23] = 0.3 mg/kg p.o., 22 hours after substance administration
[24] = 0.3 mg/kg p.o., 23 hours after substance administration
[25] = 0.3 mg/kg p.o., 24 hours after substance administration

Q: With COC(=O)Nc1c(N)nc(-c2nn(Cc3ccccc3F)c3ncc(F)cc23)nc1N [Example 1, Methyl {4,6-diamino-2-[5-fluoro-1-(2-fluorobenzyl)-1H-pyrazolo[3,4-b]pyridin-3-yl]pyrimidin-5-yl}carbamate] as the compound, how does the mean blood pressure [1] read?
A: The mean blood pressure was 151.0 mm Hg.

Q: What about the mean blood pressure [2] of the same compound?
A: The mean blood pressure was 148.4 mm Hg.

Q: And the mean blood pressure [3]?
A: Its mean blood pressure is 136.4 mm Hg.

Q: What about the mean blood pressure [4] of the same compound?
A: The mean blood pressure was 130.6 mm Hg.

Q: What about the mean blood pressure [5] of the same compound?
A: The mean blood pressure was 129.1 mm Hg.

Q: And the mean blood pressure [6]?
A: The mean blood pressure was 132.8 mm Hg.

Q: And the mean blood pressure [7]?
A: Its mean blood pressure is 125.6 mm Hg.

Q: And the mean blood pressure [8]?
A: Its mean blood pressure is 131.9 mm Hg.

Q: And the mean blood pressure [9]?
A: The mean blood pressure was 131.8 mm Hg.

Q: And the mean blood pressure [10]?
A: Its mean blood pressure is 138.5 mm Hg.

Q: And the mean blood pressure [11]?
A: Its mean blood pressure is 138.3 mm Hg.

Q: And the mean blood pressure [12]?
A: Its mean blood pressure is 138.9 mm Hg.

Q: And the mean blood pressure [13]?
A: The mean blood pressure was 137.7 mm Hg.

Q: And the mean blood pressure [14]?
A: Its mean blood pressure is 142.9 mm Hg.

Q: And the mean blood pressure [15]?
A: The mean blood pressure was 144.5 mm Hg.

Q: And the mean blood pressure [16]?
A: The mean blood pressure was 143.8 mm Hg.

Q: And the mean blood pressure [17]?
A: The mean blood pressure was 146.3 mm Hg.

Q: What about the mean blood pressure [18] of the same compound?
A: The mean blood pressure was 141.8 mm Hg.

Q: What about the mean blood pressure [19] of the same compound?
A: The mean blood pressure was 138.4 mm Hg.

Q: What about the mean blood pressure [20] of the same compound?
A: Its mean blood pressure is 149.2 mm Hg.

Q: And the mean blood pressure [21]?
A: The mean blood pressure was 145.1 mm Hg.

Q: And the mean blood pressure [22]?
A: Its mean blood pressure is 142.1 mm Hg.

Q: What about the mean blood pressure [23] of the same compound?
A: Its mean blood pressure is 141.8 mm Hg.

Q: And the mean blood pressure [24]?
A: Its mean blood pressure is 143.6 mm Hg.

Q: What about the mean blood pressure [25] of the same compound?
A: Its mean blood pressure is 135.1 mm Hg.

Q: And the mean blood pressure (3.0 mg/kg p.o., 0 hours after substance administration)?
A: The mean blood pressure was 149.0 mm Hg.

Q: What about the mean blood pressure (3.0 mg/kg p.o., 1 hours after substance administration) of the same compound?
A: The mean blood pressure was 129.3 mm Hg.

Q: And the mean blood pressure (3.0 mg/kg p.o., 2 hours after substance administration)?
A: The mean blood pressure was 111.1 mm Hg.

Q: What about the mean blood pressure (3.0 mg/kg p.o., 3 hours after substance administration) of the same compound?
A: The mean blood pressure was 106.0 mm Hg.

Q: What about the mean blood pressure (3.0 mg/kg p.o., 4 hours after substance administration) of the same compound?
A: The mean blood pressure was 107.8 mm Hg.

Q: And the mean blood pressure (3.0 mg/kg p.o., 5 hours after substance administration)?
A: Its mean blood pressure is 109.3 mm Hg.

Q: What about the mean blood pressure (3.0 mg/kg p.o., 6 hours after substance administration) of the same compound?
A: Its mean blood pressure is 106.8 mm Hg.

Q: And the mean blood pressure (3.0 mg/kg p.o., 7 hours after substance administration)?
A: Its mean blood pressure is 110.9 mm Hg.

Q: What about the mean blood pressure (3.0 mg/kg p.o., 8 hours after substance administration) of the same compound?
A: The mean blood pressure was 109.8 mm Hg.

Q: What about the mean blood pressure (3.0 mg/kg p.o., 9 hours after substance administration) of the same compound?
A: The mean blood pressure was 114.3 mm Hg.

Q: What about the mean blood pressure (3.0 mg/kg p.o., 10 hours after substance administration) of the same compound?
A: The mean blood pressure was 114.5 mm Hg.

Q: And the mean blood pressure (3.0 mg/kg p.o., 11 hours after substance administration)?
A: Its mean blood pressure is 115.6 mm Hg.

Q: What about the mean blood pressure (3.0 mg/kg p.o., 12 hours after substance administration) of the same compound?
A: Its mean blood pressure is 118.8 mm Hg.

Q: What about the mean blood pressure (3.0 mg/kg p.o., 13 hours after substance administration) of the same compound?
A: The mean blood pressure was 120.4 mm Hg.

Q: What about the mean blood pressure (3.0 mg/kg p.o., 14 hours after substance administration) of the same compound?
A: The mean blood pressure was 122.8 mm Hg.

Q: And the mean blood pressure (3.0 mg/kg p.o., 15 hours after substance administration)?
A: The mean blood pressure was 125.8 mm Hg.

Q: What about the mean blood pressure (3.0 mg/kg p.o., 16 hours after substance administration) of the same compound?
A: The mean blood pressure was 131.5 mm Hg.

Q: And the mean blood pressure (3.0 mg/kg p.o., 17 hours after substance administration)?
A: The mean blood pressure was 124.7 mm Hg.

Q: And the mean blood pressure (3.0 mg/kg p.o., 18 hours after substance administration)?
A: The mean blood pressure was 129.6 mm Hg.

Q: What about the mean blood pressure (3.0 mg/kg p.o., 19 hours after substance administration) of the same compound?
A: The mean blood pressure was 135.6 mm Hg.

Q: What about the mean blood pressure (3.0 mg/kg p.o., 20 hours after substance administration) of the same compound?
A: The mean blood pressure was 135.2 mm Hg.

Q: And the mean blood pressure (3.0 mg/kg p.o., 21 hours after substance administration)?
A: The mean blood pressure was 129.3 mm Hg.

Q: And the mean blood pressure (3.0 mg/kg p.o., 22 hours after substance administration)?
A: Its mean blood pressure is 128.3 mm Hg.

Q: And the mean blood pressure (3.0 mg/kg p.o., 23 hours after substance administration)?
A: The mean blood pressure was 130.2 mm Hg.

Q: And the mean blood pressure (3.0 mg/kg p.o., 24 hours after substance administration)?
A: Its mean blood pressure is 130.8 mm Hg.

Q: For COC(=O)N(C)c1c(N)nc(-c2nn(Cc3ccccc3F)c3ncc(F)cc23)nc1N [Example 2], which mean blood pressure [1] is on record?
A: Its mean blood pressure is 161.3 mm Hg.

Q: And the mean blood pressure [2]?
A: Its mean blood pressure is 145.7 mm Hg.

Q: What about the mean blood pressure [3] of the same compound?
A: The mean blood pressure was 130.5 mm Hg.

Q: What about the mean blood pressure [4] of the same compound?
A: The mean blood pressure was 121.5 mm Hg.

Q: And the mean blood pressure [5]?
A: The mean blood pressure was 123.1 mm Hg.

Q: What about the mean blood pressure [6] of the same compound?
A: The mean blood pressure was 121.6 mm Hg.

Q: And the mean blood pressure [7]?
A: Its mean blood pressure is 123.8 mm Hg.

Q: What about the mean blood pressure [8] of the same compound?
A: The mean blood pressure was 124.4 mm Hg.

Q: And the mean blood pressure [9]?
A: Its mean blood pressure is 128.7 mm Hg.

Q: What about the mean blood pressure [10] of the same compound?
A: The mean blood pressure was 133.7 mm Hg.

Q: And the mean blood pressure [11]?
A: The mean blood pressure was 139.2 mm Hg.

Q: And the mean blood pressure [12]?
A: The mean blood pressure was 137.9 mm Hg.

Q: And the mean blood pressure [13]?
A: Its mean blood pressure is 143.0 mm Hg.

Q: And the mean blood pressure [14]?
A: Its mean blood pressure is 146.0 mm Hg.

Q: What about the mean blood pressure [15] of the same compound?
A: Its mean blood pressure is 149.2 mm Hg.

Q: What about the mean blood pressure [16] of the same compound?
A: The mean blood pressure was 152.3 mm Hg.

Q: What about the mean blood pressure [17] of the same compound?
A: The mean blood pressure was 155.5 mm Hg.

Q: And the mean blood pressure [18]?
A: Its mean blood pressure is 156.3 mm Hg.

Q: And the mean blood pressure [19]?
A: Its mean blood pressure is 157.3 mm Hg.

Q: And the mean blood pressure [20]?
A: Its mean blood pressure is 156.9 mm Hg.

Q: And the mean blood pressure [21]?
A: The mean blood pressure was 156.3 mm Hg.

Q: And the mean blood pressure [22]?
A: The mean blood pressure was 149.3 mm Hg.

Q: And the mean blood pressure [23]?
A: The mean blood pressure was 147.1 mm Hg.

Q: And the mean blood pressure [24]?
A: The mean blood pressure was 153.1 mm Hg.

Q: And the mean blood pressure [25]?
A: The mean blood pressure was 152.3 mm Hg.
